Literature values in US20110251243A1, “Method and Kit for Assessing a Patient's Genetic Information, Lifestyle and Environment Conditions, and Providing a Tailored Therapeutic Regime” (priority 2005, published 2011).
Like-named read-outs stand apart in the source and are kept apart here.

Tests used:
[1] = in the majority of people
smokers = details: women with at least one Taq1A allele compared to women with both common alleles

CN1CCCC1c1cccnc1 (stereo not shown) [nicotine]
share metabolized to cotinine by C-oxidation [1]: 70% to 80

CCc1c2c(nc3ccc(OC(=O)N4CCC(N5CCCCC5)CC4)cc13)-c1cc3c(c(=O)n1C2)COC(=O)[C@]3(O)CC [Irinotecan]
chance of neutropenia (patients; heterozygotes (6/7)): 12.5% | likelihood of neutropenia (patients; homozygous 7/7 genotype in UGT1A1*28): 50% | fatality (patients; in vivo): up to 5% | severe diarrhoea and neutropenia, share of patients (patients; in vivo): 20-35% | chance of neutropenia (patients; wild type (homozygous 6/6 genotype)): roughly 0%

CC(NC(C)(C)C)C(=O)c1cccc(Cl)c1 (stereo not shown) [bupropion]
smoking status at 12 months (smokers): more likely to be still smoking
